The text below walks through data of ChEMBL document CHEMBL5550217, “Discovery of gem-Dimethyl-hydroxymethylpyridine Derivatives as Potent Non-nucleoside RSV Polymerase Inhibitors” (J Med Chem, 2024).

Data set [1] can be described thus: Inhibition of RSV RNA polymerase assessed as RNA products using […] template by Flashplate primer extension enzymatic assay. Also on record: species or system Respiratory syncytial virus.
Data set [2] is described as follows: Metabolic stability in human hepatocytes assessed as intrinsic clearance per 10^6 cells at 1 uM measured upto 180 mins by LC-MS/MS analysis. As to conditions: read-out: CLH. Format: ADME, cell-based, Hepatocyte.
Data set [3] is described as follows: Cytotoxicity against human HeLa cells measured after 3 days by ATPlite kit assay. To be noted: time 3 day. Format: toxicity, cell-based. Background: Cellular ATP, detected with luciferase, serves as a proxy for viable cell number.
Data set [4] concerns Respiratory syncytial virus. Description: Antiviral activity against Respiratory syncytial virus (RSV) infected in human APC-126 cells assessed as replicon by measuring protein adjusted effective concentration in the presence of 40% human serum measured after 3 days by Renilla Glo assay. Format: functional, organism-based. As to conditions: 72 h. For orientation: Replicon systems follow genome replication, usually without infectious particles.

Data set [5] concerns Respiratory syncytial virus. In words: Antiviral activity against Respiratory syncytial virus (RSV)-A2-eGFP infected in human HeLa cells assessed as eGFP expression measured after 3 days by RSV Cell-based infection assay. To be noted: 72 h. Format: functional, organism-based.
Data set [6] in a line: Metabolic stability in human liver microsomes assessed as intrinsic clearance. In kind it is ADME, Microsome. As to conditions: read-out: CLH. Background: Microsomes from liver hold many membrane-bound enzymes, among them those of drug oxidation.
Data set [7] in a line: Inhibition of RSV RNA polymerase assessed as RNA products using […] template by SPA primer extension enzymatic assay. Also on record: species or system Respiratory syncytial virus.
Data set [8] is described as follows: Metabolic stability in rat hepatocytes assessed as intrinsic clearance per 10^6 cells at 1 uM measured upto 180 mins by LC-MS/MS analysis. Format: ADME, cell-based, Hepatocyte. As to conditions: read-out: CLH.
Data set [9] relates to Respiratory syncytial virus. In words: Antiviral activity against Respiratory syncytial virus (RSV) assessed as reduction in replicon RNA by Renilla Luciferase assay system. To be noted: human respiratory syncytial virus. In kind it is functional, organism-based.
Data set [10] in a line: Clearance in Sprague-Dawley rat at 1.25 mg/kg, iv. Format: ADME, organism-based. As to conditions: in vivo.
A short description of data set [11]: Metabolic stability in human hepatocytes assessed as intrinsic clearance measured per 10^6 cells. Format: ADME, cell-based, Hepatocyte. As to conditions: read-out: CLH.
Data set [12] in a line: Metabolic stability in rat hepatocytes assessed as intrinsic clearance measured per 10^6 cells. Format: ADME, cell-based, Hepatocyte. As to conditions: read-out: CLH.
Data set [13] is described as follows: Drug recovery in bile duct cannulated rat urine measured for 48 hrs. Format: ADME, tissue-based. To be noted: read-out: Drug recovery.
Data set [14] in a line: Drug recovery in bile duct cannulated rat bile measured for 48 hrs. Format: ADME, tissue-based. To be noted: read-out: Drug recovery.

pEC50, pIC50: −log10 of the molar value.

One may read the pIC50 as the IC50 on a negative log10 scale, so that one unit is a factor of ten. A word on the CC50: it is the concentration at which the toxic effect on the cells reaches its halfway point. The term pEC50 denotes the negative decadic logarithm of the EC50, by convention in mol/L. On to `COc1cc(C(=O)NC[C@](O)(c2cc(C(C)(C)O)c(F)c(-c3ccc(F)cc3)n2)C(F)(F)F)cc2cc(C3CC3)cnc12`, for which the pIC50 in data set [1] was 8.70. In data set [2], the hepatocyte CLint at 1 µM was below 1.9 µL/min/1e6 cells. Also, in [3], the midpoint of cytotoxicity, the CC50 at 72 h, lay at 12.9 µM. The pEC50 in data set [4] is 5.66; in [5], 7.27.

On to `COc1cc(C(=O)NC[C@](O)(c2cc(C(C)(C)O)c(F)c(-c3ccc(F)cc3)n2)C(F)(F)F)cc2cc(C)c(C)nc12`, for which the microsomal CLint in [6] is above 347 µL/min/mg. In data set [3], this molecule displayed a CC50 at 72 h of 18.4 µM. The pEC50 is 7.21 in data set [4] and 8.07 in data set [5]. Also, the pIC50 in data set [7] was 9.02.

The term clearance denotes the rate of elimination divided by the concentration. High values mean efficient removal, low ones inefficient removal. Take `COc1cc(C(=O)NC[C@](O)(c2cc3c(c(-c4ccc(F)cc4)n2)OC[C@]3(C)N)C(F)(F)F)ccc1OC[C@@H](C)O`: the figures for the hepatocyte CLint at 1 µM in data set [2] and in data set [8] were 31 µL/min/1e6 cells and 54 µL/min/1e6 cells, respectively. Also, it took 58.4 µM to reach half-maximal cytotoxicity in [3] (CC50 at 72 h). The pEC50 in [9] and in [5] was 8.00 throughout. Besides, the clearance in [10] was 89 mL/min/kg. Besides, the pIC50 in data set [7] was 8.29. Also, the values for the hepatocyte CLint in data set [11] and in data set [12] were 31 µL/min/1e6 cells and 54 µL/min/1e6 cells, respectively.

`COc1cc(C(=O)NC[C@](O)(c2cc(C(C)(C)O)c(F)c(-c3ccc(F)cc3)n2)C(F)(F)F)cc2cc(C(F)F)cnc12`: the pIC50 in data set [1] was 8.77. The hepatocyte CLint at 1 µM in [2] was below 1.9 µL/min/1e6 cells; in [8], 19 µL/min/1e6 cells. This molecule displayed a CC50 at 72 h in [3] of 13.2 µM. The pEC50 is 7.01 in [4] and 8.44 in data set [5].

In the case of `COc1cc(C(=O)NC[C@](O)(c2cc(C(C)(C)O)c(F)c(-c3ccc(F)cc3)n2)C(F)(F)F)cc2cc(C(F)(F)F)cnc12`, the pIC50 in data set [1] was 9.14. Also, the hepatocyte CLint at 1 µM in data set [2] and in data set [8] was below 1.9 µL/min/1e6 cells throughout. The molecule further yielded a CC50 at 72 h in [3] of 12.6 µM. The figures for the pEC50 in [4] and in [5] were 6.10 and 7.59, respectively.

For `COc1cc(C(=O)NC[C@](O)(c2cc(C(C)(C)O)c(F)c(-c3ccc(F)cc3)n2)C(F)(F)F)cc2cc(CF)cnc12`, in [1], the pIC50 was 8.42. For the same molecule, the CC50 at 72 h in data set [3] is 39.8 µM. For the same molecule, the pEC50 in data set [5] is 7.90.

As for `COc1cc(C(=O)NC[C@](O)(c2cc3c(c(-c4ccc(F)cc4)n2)OC[C@]3(C)NS(C)(=O)=O)C(F)(F)F)cn2cc(CO)nc12`, the hepatocyte CLint at 1 µM in [2] is 4.3 µL/min/1e6 cells; in data set [8] it was 20 µL/min/1e6 cells. Further, the dose excreted at 48 h was determined as 6% in data set [13] and 77% in [14]. Further, the cytotoxic concentration (CC50) at 72 h in data set [3] is above 90.9 µM. The clearance in [10] was determined as 51.2 mL/min/kg. Besides, the pIC50 in data set [7] is 8.47. Besides, in data set [5], the pEC50 is 7.34.

Turning to `COc1cc(C(=O)NC[C@](O)(c2cc3c(c(-c4ccc(F)cc4)n2)OC[C@]3(C)NS(C)(=O)=O)C(F)(F)F)cc2nc(N)sc12`, the hepatocyte CLint at 1 µM in data set [2] came to 12 µL/min/1e6 cells; in data set [8], 72 µL/min/1e6 cells. In data set [3], this molecule showed a CC50 at 72 h of 13.6 µM. Further, the clearance in [10] was 67.3 mL/min/kg. Also, the pIC50 in [7] was 9.28. In [5], the pEC50 is 8.85.
